System: TNF-α
Experiment: ELISA, TNF-α release in NHEK
Assay type: cell-based, human
Conditions: 1 µM with 300 µM carvacrol, 24 h
Source text: Constitutive activation of TRPV3 due to continuous stimulation or the presence of Olmsted mutations causes noticeable skin inflammation due to the increased secretion of pro-inflammatory cytokines from the keratinocytes. Besides, in atopic dermatitis (AD), cytokine release from keratinocytes contributes to the inflammatory environment, which drives many characteristic AD symptoms. Therefore, we determined the effect of TRPV3 activation on cytokine release instead of TRPV3 expression and evaluated whether alpha-mangostin suppressed TRPV3-mediated cytokine secretion in normal human keratinocytes. The levels of secreted cytokines (interleukin (IL)-6, IL-8, and tumor necrosis factor-alpha (TNF-α)) were measured using enzyme-linked Immunosorbent assay (ELISA) kits due to their high sensitivity and quantitation ability. The cells were induced with 300 µM carvacrol, with or without 1 µM alpha-mangostin, and 10 µM 74a.
Figure 5 Alpha-mangostin (α-MG) inhibited carvacrol-induced cytokine release in NHEK cells and rescued carvacrol-induced cell death. (A) Alpha-mangostin inhibited the carvacrol-induced release of IL-8 and IL-6 in NHEK. Cells were induced by 300 µM carvacrol with or without either 1 µM alpha-mangostin or 10 µM 74a for 24 h before the ELISA assay. (B) Alpha-mangostin reduced cell death caused by carvacrol in human keratinocytes. […]

In the case of `COc1c(O)cc2oc3cc(O)c(CC=C(C)C)c(O)c3c(=O)c2c1CC=C(C)C` [Alpha-mangostin], the “Effect on TNF-α levels” value is reported as “no changes”.

Source: publication PMC10455244, “Alpha-Mangostin: A Potent Inhibitor of TRPV3 and Pro-Inflammatory Cytokine Secretion in Keratinocytes” (International Journal of Molecular Sciences, 2023)
